Results reported in ChEMBL document CHEMBL1629559, “Real-time PCR detection of gyrA and parC mutations in Streptococcus pneumoniae” (2008).
In brackets after ≈: the same amount, converted by molar mass.

Assays:
[1] = test system: Streptococcus pneumoniae; test: Antibacterial activity against Streptococcus pneumoniae CIP104485 by agar disk diffusion method; assay type: functional, CIP1044
[2] = test system: Streptococcus pneumoniae; test: Antibacterial activity against Streptococcus pneumoniae R6 by agar disk diffusion method; assay type: functional
[3] = test system: Streptococcus pneumoniae; test: Antibacterial activity against Streptococcus pneumoniae CP1000 by agar disk diffusion method; assay type: functional
[4] = test system: Streptococcus pneumoniae; test: Antibacterial activity against Streptococcus pneumoniae R6 Tr6 harboring gyrA Ser81Phe mutant gene by agar disk diffusion method; assay type: functional
[5] = test system: Streptococcus pneumoniae; test: Antibacterial activity against Streptococcus pneumoniae U2A1686 harboring gyrA Glu85Lys mutant gene by agar disk diffusion method; assay type: functional
[6] = test system: Streptococcus pneumoniae; test: Antibacterial activity against Streptococcus pneumoniae U2A1050 harboring gyrA Ser81Phe mutant gene by agar disk diffusion method; assay type: functional
[7] = test system: Streptococcus pneumoniae; test: Antibacterial activity against Streptococcus pneumoniae U2A1051 harboring gyrA Ser81Tyr mutant gene by agar disk diffusion method; assay type: functional
[8] = test system: Streptococcus pneumoniae; test: Antibacterial activity against Streptococcus pneumoniae U2A1266 harboring gyrA Ser81Cys mutant gene by agar disk diffusion method; assay type: functional
[9] = test system: Streptococcus pneumoniae; test: Antibacterial activity against Streptococcus pneumoniae H548 clinical isolate harboring gyrA Ser81Phe mutant gene by agar disk diffusion method; assay type: functional
[10] = test system: Streptococcus pneumoniae; test: Antibacterial activity against Streptococcus pneumoniae R6 Tr1 harboring parC Ser79Tyr mutant gene by agar disk diffusion method; assay type: functional
[11] = test system: Streptococcus pneumoniae; test: Antibacterial activity against Streptococcus pneumoniae U2A1053 harboring parC Ser79Phe mutant gene by agar disk diffusion method; assay type: functional
[12] = test system: Streptococcus pneumoniae; test: Antibacterial activity against Streptococcus pneumoniae U2A1413 harboring parC Ser79Tyr mutant gene by agar disk diffusion method; assay type: functional
[13] = test system: Streptococcus pneumoniae; test: Antibacterial activity against Streptococcus pneumoniae U2A1693 harboring parC Asp83Asn mutant gene by agar disk diffusion method; assay type: functional
[14] = test system: Streptococcus pneumoniae; test: Antibacterial activity against Streptococcus pneumoniae U2A1411 harboring parC Asp83Gly mutant gene by agar disk diffusion method; assay type: functional
[15] = test system: Streptococcus pneumoniae; test: Antibacterial activity against Streptococcus pneumoniae U2A1681 harboring parC Ser79Tyr Asp83Ala mutant gene by agar disk diffusion method; assay type: functional
[16] = test system: Streptococcus pneumoniae; test: Antibacterial activity against Streptococcus pneumoniae R6 Tr10 harboring gyrA Ser81Tyr parC Ser79Tyr mutant gene by agar disk diffusion method; assay type: functional
[17] = test system: Streptococcus pneumoniae; test: Antibacterial activity against Streptococcus pneumoniae U2A1056 harboring gyrA Ser81Tyr parC Asp83His mutant gene by agar disk diffusion method; assay type: functional
[18] = test system: Streptococcus pneumoniae; test: Antibacterial activity against Streptococcus pneumoniae U2A1060 harboring gyrA Ser81Phe parC Asp83His mutant gene by agar disk diffusion method; assay type: functional
[19] = test system: Streptococcus pneumoniae; test: Antibacterial activity against Streptococcus pneumoniae U2A1414 harboring gyrA Glu85Lys parC Ser79Phe mutant gene by agar disk diffusion method; assay type: functional
[20] = test system: Streptococcus pneumoniae; test: Antibacterial activity against Streptococcus pneumoniae CIP104485 by agar dilution method; assay type: functional; conditions: CIP1044
[21] = test system: Streptococcus pneumoniae; test: Antibacterial activity against Streptococcus pneumoniae R6 by agar dilution method; assay type: functional
[22] = test system: Streptococcus pneumoniae; test: Antibacterial activity against Streptococcus pneumoniae CP1000 by agar dilution method; assay type: functional
[23] = test system: Streptococcus pneumoniae; test: Antibacterial activity against Streptococcus pneumoniae R6 Tr6 harboring gyrA Ser81Phe mutant gene by agar dilution method; assay type: functional
[24] = test system: Streptococcus pneumoniae; test: Antibacterial activity against Streptococcus pneumoniae U2A1686 harboring gyrA Glu85Lys mutant gene by agar dilution method; assay type: functional
[25] = test system: Streptococcus pneumoniae; test: Antibacterial activity against Streptococcus pneumoniae U2A1050 harboring gyrA Ser81Phe mutant gene by agar dilution method; assay type: functional
[26] = test system: Streptococcus pneumoniae; test: Antibacterial activity against Streptococcus pneumoniae U2A1051 harboring gyrA Ser81Tyr mutant gene by agar dilution method; assay type: functional
[27] = test system: Streptococcus pneumoniae; test: Antibacterial activity against Streptococcus pneumoniae U2A1266 harboring gyrA Ser81Cys mutant gene by agar dilution method; assay type: functional
[28] = test system: Streptococcus pneumoniae; test: Antibacterial activity against Streptococcus pneumoniae H548 clinical isolate harboring gyrA Ser81Phe mutant gene by agar dilution method; assay type: functional
[29] = test system: Streptococcus pneumoniae; test: Antibacterial activity against Streptococcus pneumoniae R6 Tr1 harboring parC Ser79Tyr mutant gene by agar dilution method; assay type: functional
[30] = test system: Streptococcus pneumoniae; test: Antibacterial activity against Streptococcus pneumoniae U2A1053 harboring parC Ser79Phe mutant gene by agar dilution method; assay type: functional
[31] = test system: Streptococcus pneumoniae; test: Antibacterial activity against Streptococcus pneumoniae U2A1413 harboring parC Ser79Tyr mutant gene by agar dilution method; assay type: functional
[32] = test system: Streptococcus pneumoniae; test: Antibacterial activity against Streptococcus pneumoniae U2A1693 harboring parC Asp83Asn mutant gene by agar dilution method; assay type: functional
[33] = test system: Streptococcus pneumoniae; test: Antibacterial activity against Streptococcus pneumoniae U2A1411 harboring parC Asp83Gly mutant gene by agar dilution method; assay type: functional
[34] = test system: Streptococcus pneumoniae; test: Antibacterial activity against Streptococcus pneumoniae U2A1681 harboring parC Ser79Tyr Asp83Ala mutant gene by agar dilution method; assay type: functional
[35] = test system: Streptococcus pneumoniae; test: Antibacterial activity against Streptococcus pneumoniae R6 Tr10 harboring gyrA Ser81Tyr parC Ser79Tyr mutant gene by agar dilution method; assay type: functional
[36] = test system: Streptococcus pneumoniae; test: Antibacterial activity against Streptococcus pneumoniae U2A1056 harboring gyrA Ser81Tyr parC Asp83His mutant gene by agar dilution method; assay type: functional
[37] = test system: Streptococcus pneumoniae; test: Antibacterial activity against Streptococcus pneumoniae U2A1060 harboring gyrA Ser81Phe parC Asp83His mutant gene by agar dilution method; assay type: functional
[38] = test system: Streptococcus pneumoniae; test: Antibacterial activity against Streptococcus pneumoniae U2A1414 harboring gyrA Glu85Lys parC Ser79Phe mutant gene by agar dilution method; assay type: functional

CCn1cc(C(=O)O)c(=O)c2cc(F)c(N3CCNCC3)cc21 [NORFLOXACIN]
diameter of the inhibition zone (DIZ) [1]: 19 mm
diameter of the inhibition zone (DIZ) [2]: 19 mm
diameter of the inhibition zone (DIZ) [3]: 21 mm
diameter of the inhibition zone (DIZ) [4]: 18 mm
diameter of the inhibition zone (DIZ) [5]: 22 mm
diameter of the inhibition zone (DIZ) [6]: 16 mm
diameter of the inhibition zone (DIZ) [7]: 18 mm
diameter of the inhibition zone (DIZ) [8]: 13 mm
diameter of the inhibition zone (DIZ) [9]: 6 mm
diameter of the inhibition zone (DIZ) [10]: 6 mm
diameter of the inhibition zone (DIZ) [11]: 6 mm
diameter of the inhibition zone (DIZ) [12]: 6 mm
diameter of the inhibition zone (DIZ) [13]: 6 mm
diameter of the inhibition zone (DIZ) [14]: 6 mm
diameter of the inhibition zone (DIZ) [15]: 6 mm
diameter of the inhibition zone (DIZ) [16]: 6 mm
diameter of the inhibition zone (DIZ) [17]: 6 mm
diameter of the inhibition zone (DIZ) [18]: 6 mm
diameter of the inhibition zone (DIZ) [19]: 6 mm
MIC [20]: 4 µg/mL (≈ 12.5 µM)
MIC [21]: 4 µg/mL (≈ 12.5 µM)
MIC [22]: 4 µg/mL (≈ 12.5 µM)
MIC [23]: 4 µg/mL (≈ 12.5 µM)
MIC [24]: 4 µg/mL (≈ 12.5 µM)
MIC [25]: 8 µg/mL (≈ 25.1 µM)
MIC [26]: 8 µg/mL (≈ 25.1 µM)
MIC [27]: 8 µg/mL (≈ 25.1 µM)
MIC [28]: 32 µg/mL (≈ 100 µM)
MIC [29]: 64 µg/mL (≈ 200 µM)
MIC [30]: 64 µg/mL (≈ 200 µM)
MIC [31]: 32 µg/mL (≈ 100 µM)
MIC [32]: 64 µg/mL (≈ 200 µM)
MIC [33]: 256 µg/mL (≈ 802 µM)
MIC [34]: 256 µg/mL (≈ 802 µM)
MIC [35]: 128 µg/mL (≈ 401 µM)
MIC [36]: 128 µg/mL (≈ 401 µM)
MIC [37]: 256 µg/mL (≈ 802 µM)
MIC [38]: 256 µg/mL (≈ 802 µM)
